From patent US20250304571A1, “BIOLOGICALLY ACTIVE COMPOUNDS AND METHODS THEREOF” (Suzhou Keen Therapeutics Co., Ltd., priority 2022, published 2025)
Where two headings read alike, the source gives them in different places.

Columns and labels:
Format in all cases: cell-based
[1] = tested on: KP4 (pancreatic ductal adenocarcinoma) cells; assay: Cell viability (CellTiter Glo) assay, inhibition of KP4 cell proliferation; settings: Homo sapiens, read-out: IC50, inhibition of KP4 cell proliferation
[2] = tested on: 786-O (renal cell carcinoma) cells; assay: Cell viability (CellTiter Glo) assay, inhibition of 786-O cell proliferation; settings: Homo sapiens, read-out: IC50, inhibition of 786-O cell proliferation
[3] = tested on: 786-O cells; assay: Anti-proliferation activity in 786-O cells in the presence of a ferroptosis inhibitor (Ferrostatin-1 or Liproxstatin-1); settings: Homo sapiens, 786-0, 72 h, no ferroptosis inhibitor, read-out: IC50, No Ferroptosis Inhibitor (Table 5)
Description: In one assessment, cells (KP4, 786-0 and HT-1080) were seeded (700 cells/well, 1000 cells/well or 3000 cells/well) in 384-well or 96-well plates and incubated at 37° C./5% CO2 for 22-24 hours. A series of 8 different concentrations of compound stocks were created by 5-fold serial dilution in DMSO. These compounds were further diluted in culture media and were then added to cells (final concentrations: 100 μM, 20 μM, 4 μM, 0.8 μM, 0.16 μM, […].). After 72 hours of incubation, 30 μL of CellTiter Glo reagent (Promega) was added to each well and luminescence was measured after 10 minutes using SpectraMax M5/M5e (Molecular Devices). Luminescence from cells treated with DMSO alone was set as background and % of inhibition was calculated as follows: […]
Anti-proliferation activity of various compounds was also tested in the presence of an ferroptosis inhibitor, Ferrostatin-1 (2 μM) or Liproxstatin-1 (2 μM). Certain results are provided in Table 4 and Table 5 as examples. “A” indicates an IC50≤100 nM; “B” indicates an IC50 of >100 nM and ≤500 nM; “C” indicates an IC50>500 nM and ≤5 μM; and “D” indicates an IC50>5 μM.

[4] = KP-4, KP4 cells, 72 hours, CellTiter Glo
[5] = 786-0, 786-O cells, 72 hours, CellTiter Glo

IC50 [1, 4]	IC50 [2, 5]	Structure (SMILES)	other results
100 to 500 nM		CCCC[C@H]1Cc2cc(OC)ccc2[C@H](c2ccc(F)cc2)N1C(=O)COC(=N)N(C)C [Compound A1]	
> 5000 nM	500 to 5000 nM	CCCC[C@H]1Cc2cc(OC)ccc2[C@H](c2ccc(F)cc2)N1C(=O)COC(=N)N1CCN(C)C(=O)C1 [Compound A2]	
100 to 500 nM		CN(C)C(=N)OCc1ncc2ccn(-c3ccc(Oc4ccccc4)cc3)c2n1 [Compound D1]	
500 to 5000 nM	100 to 500 nM	N=C(OCc1nc(Nc2ccc(Oc3ccccc3)cc2)c2cc[nH]c2n1)N1CCOCC1 [Compound D4]	
100 to 500 nM	100 to 500 nM	N=C(OCc1nc(Nc2ccc(Oc3ccccc3)cc2)c2cc[nH]c2n1)N1CCCCC1 [Compound D5]	
500 to 5000 nM	500 to 5000 nM	CN1CCN(C(=N)OCc2nc(Nc3ccc(Oc4ccccc4)cc3)c3cc[nH]c3n2)CC1=O [Compound D7]	
500 to 5000 nM	100 to 500 nM	N=C(OCc1nc(Nc2ccc(Oc3ccccc3)cc2)c2cc[nH]c2n1)N1CCCC(F)(F)C1 [Compound D8]	
500 to 5000 nM		CN(C)C(=N)OCc1nc(Nc2ccc(Oc3ccccc3)cc2)c2cn[nH]c2n1 [Compound D10]	
		CN(C)C(=N)OCc1nc(N)c2c(n1)N(c1ccc(Oc3ccccc3)cc1)CC2(C)C [Compound E1]	IC50 ([2]; 786-0, 72 h): < 100 nM; IC50 [3]: < 100 nM
	< 100 nM	C[C@@H]1CN(c2ncc(N3C(=O)C4(CCCC4)c4c(N)nc(COC(=N)N5CCC[C@@H]5C(F)(F)F)nc43)cn2)C[C@H](C)O1 [Compound E87, (4′-amino-7′-(2-((2S,6R)-2,6-dimethylmorpholino)pyrimidin-5-yl)-6′-oxo-6′,7′-dihydrospiro[cyclopentane-1,5′-pyrrolo[2,3-d]pyrimidin]-2′-yl)methyl (R)-2-(trifluoromethyl)pyrrolidine-1-carbimidate]	IC50 [3]: < 100 nM
		CC(C)Nc1nc(COC(=N)N2CCC[C@@H]2C(F)(F)F)nc2c1C1(CCCC1)C(=O)N2c1ccc(F)c(F)c1 [Compound E212]	IC50 ([2]; 786-0, 72 h): < 100 nM
	100 to 500 nM	CS(=O)(=O)c1ccc(N2C(=O)C3(CCCC3)c3c(N)nc(COC(=N)N4CCC[C@@H]4C(F)(F)F)nc32)cc1 [Compound E213]	
	< 100 nM	C[C@@H]1CN(c2ccc(N3C(=O)C4(CCCC4)c4c(N)nc(COC(=N)N5CCC[C@@H]5C(F)(F)F)nc43)cc2F)C[C@H](C)O1 [Compound E214]	
	100 to 500 nM	CNc1nc(COC(=N)N2CCC[C@@H]2C(F)(F)F)nc2c1C1(CCCC1)C(=O)N2c1cnc(C2CC2)nc1 [Compound E215]	
	100 to 500 nM	CNc1nc(COC(=N)N2CCOCC2C(F)(F)F)nc2c1C(C)(C)C(=O)N2c1cnc(N2CCC(F)(F)C2)nc1 (centres unmarked) [Compound E216]	
	< 100 nM	CNc1nc(COC(=N)N2CCC[C@@H]2C(F)(F)F)nc2c1C(C)(C)C(=O)N2c1cnc(N2C[C@@H](C)O[C@@H](C)C2)nc1 [Compound E217]	
	500 to 5000 nM	CNc1nc(COC(=N)N2CCOCC2C(F)(F)F)nc2c1C(C)(C)C(=O)N2c1cnc(N2C[C@@H](C)O[C@@H](C)C2)nc1 (some centres unmarked) [Compound E218]	
	100 to 500 nM	C[C@@H]1CN(c2ncc(N3C(=O)C(C)(C)c4c(NC5CCC5)nc(COC(=N)N5CCOCC5C(F)(F)F)nc43)cn2)C[C@H](C)O1 (some centres unmarked) [Compound E219]	
	100 to 500 nM	CC1(C)C(=O)N(c2cnc(N3CCC(F)(F)C3)nc2)c2nc(COC(=N)N3CCOCC3C(F)(F)F)nc(NC3CCC3)c21 (centres unmarked) [Compound E220]	

IC50 [1, 4]	IC50 [2, 5]	Structure (SMILES)	other results
500 to 5000 nM		CC(C)Oc1ccc(Nc2nc(N)nc(COC(=N)N(C)C)n2)cc1 [Compound F1]	
	> 5000 nM	Cn1c(OCc2nc(N)nc(Nc3ccc(Oc4ccccc4)cc3)n2)nc(Br)c1Br [Compound F2]	
< 100 nM		N=C(OCc1nc(N)nc(Nc2ccc(Oc3ccccc3)cc2)n1)N1CCCCC1 [Compound F4, (4-amino-6-((4-phenoxyphenyl)amino)-1,3,5-triazin-2-yl)methyl piperidine-1-carbimidate]	
100 to 500 nM	100 to 500 nM	CN(C)C(=N)OCc1nc(N)nc(Nc2ccc3ccccc3c2)n1 [Compound F5]	
100 to 500 nM	100 to 500 nM	CN1CCN(C(=N)OCc2nc(N)nc(Nc3ccc(Oc4ccccc4)cc3)n2)CC1 [Compound F7]	
		CC(C)N(CC(F)(F)F)C(=N)OCc1nc(N)nc(Nc2ccc(Oc3ccccc3)cc2)n1 [Compound F8]	IC50 ([2]; 786-0, 72 h): < 100 nM
	< 100 nM	[2H]C([2H])(OC(=N)N1CCC(F)(F)CC1)c1nc(N)nc(Nc2ccc(Oc3ccccc3)cc2)n1 [Compound F10]	
		N=C(OCc1nc(N)nc(Nc2ccc(Oc3ccccc3)cc2)n1)N(C1CCCCC1)C1CC1 [Compound F14]	IC50 ([2]; 786-0, 72 h): < 100 nM
	100 to 500 nM	CC1(NC(=N)OCc2nc(N)nc(Nc3ccc(Oc4ccccc4)cc3)n2)CCCCC1 [Compound F15]	
	100 to 500 nM	CCN(CC)C(=N)OCc1nc(N)nc(Nc2ccc(Oc3ccccc3)cc2)n1 [Compound F17]	
		Nc1nc(CO/C(=N\C2CCCCC2)NC2CCCCC2)nc(Nc2ccc(Oc3ccccc3)cc2)n1 [Compound F23]	IC50 ([1]; KP-4, 72 h): 500 to 5000 nM; IC50 ([2]; 786-0, 72 h): 100 to 500 nM
500 to 5000 nM	100 to 500 nM	CC(C)/N=C(/NC(C)C)OCc1nc(N)nc(Nc2ccc(Oc3ccccc3)cc2)n1 [Compound F24]	
		N=C(N)OCc1nc(N)nc(Nc2ccc(Oc3ccccc3)cc2)n1 [Compound F26]	IC50 ([1]; KP-4, 72 h): > 5000 nM
100 to 500 nM		N=C(OCc1nc(N)nc(Nc2ccc(Oc3ccccc3)cc2)n1)N1CCS(=O)(=O)CC1 [Compound F27]	
	100 to 500 nM	CC1(NC(=N)OCc2nc(N)nc(Nc3ccc(Oc4ccccc4)cc3)n2)CC1 [Compound F28]	
		CN(C(=N)OCc1nc(N)nc(Nc2ccc(Oc3ccccc3)cc2)n1)c1ccccc1 [Compound F29]	IC50 ([2]; 786-0, 72 h): < 100 nM
< 100 nM		C[C@@H]1CN(C(=N)OCc2nc(N)nc(Nc3ccc(Oc4ccccc4)cc3)n2)C[C@H](C)N1C(=O)OC(C)(C)C [Compound F32]	
100 to 500 nM		CN1CCN(C(=N)OCc2nc(N)nc(Nc3ccc(Oc4ccccc4)cc3)n2)CC1=O [Compound F33]	
100 to 500 nM	500 to 5000 nM	CN(C)C(=N)OCc1nccc(Nc2ccc(Oc3ccccc3)cc2)n1 [Compound F35]	

IC50 [1, 4]	IC50 [2, 5]	Structure (SMILES)	other results
		CN(C)C(=N)OCc1nc(N)cc(Nc2ccc(Oc3ccccc3)cc2)n1 [Compound F36]	IC50 ([1]; KP-4, 72 h): 500 to 5000 nM
> 5000 nM		CN(C)C(=N)OCc1nccc(N2CCCCC2c2ccc(Oc3ccccc3)cc2)n1 (centres unmarked) [Compound F38]	
	500 to 5000 nM	CCN(CC(F)(F)F)C(=N)OCc1cc(Nc2ccc(Oc3ccccc3)cc2)ncn1 [Compound F39]	
	100 to 500 nM	CCN(CC(F)(F)F)C(=N)OCc1nccc(Nc2ccc(Oc3ccccc3)cc2)n1 [Compound F40]	
	< 100 nM	CCN(C(=N)OCc1nc(N)nc(Nc2ccc(Oc3ccccc3)cc2)n1)c1ccncc1 [Compound F41]	
	< 100 nM	CCN(C(=N)OCc1nc(N)nc(Nc2ccc(Oc3ccccc3)cc2)n1)c1ccccn1 [Compound F42]	
		N=C(OCc1nc(N)nc(Nc2ccc(Oc3ccccc3)cc2)n1)N1CCCCO1 [Compound F43]	IC50 ([2]; 786-0, 72 h): 100 to 500 nM
	100 to 500 nM	N=C(OCc1nc(N)nc(Nc2ccc(Oc3ccccc3)cc2)n1)N1CCCO1 [Compound F44]	
	< 100 nM	CCN(CC(F)(F)F)C(=N)OCc1nc(N)nc(Nc2ccc(Oc3ccccc3)cc2)n1 [Compound F45]	
	< 100 nM	C#CCOc1cccc(Oc2ccc(Nc3nc(N)nc(COC(=N)N4CCCCC4C(F)(F)F)n3)cc2)c1 (centres unmarked) [Compound F46]	
	< 100 nM	C#CCOc1cccc(Oc2ccc(Nc3nc(N)nc(COC(=N)N(CC)c4ccccn4)n3)cc2)c1 [Compound F47]	
	500 to 5000 nM	CCN(CC(F)(F)F)C(=N)OCc1cc(Nc2ccc(Oc3ccccc3)cc2)cnn1 [Compound F48]	
	500 to 5000 nM	CCN(CC(F)(F)F)C(=N)OCc1nccc(Nc2ccc(N3CCOCC3)nc2)n1 [Compound F49]	
	500 to 5000 nM	CCN(CC(F)(F)F)C(=N)OCc1ncc(C#N)c(Nc2ccc(Oc3ccccc3)cc2)n1 [Compound F50]	
	< 100 nM	N=C(OCc1nc(N)nc(Nc2ccc(Oc3ccccc3)cc2)n1)N(CC(F)(F)F)C1CCOCC1 [Compound F51]	
	> 5000 nM	Nc1nc(COc2nc(=O)[nH]c(=O)[nH]2)nc(Nc2ccc(Oc3ccccc3)cc2)n1 [Compound F53]	
	500 to 5000 nM	CCN(CC(F)(F)F)C(=N)OCc1ncc(C#N)c(Nc2ccc(Oc3ccccc3)cc2)c1F [Compound F54]	
	100 to 500 nM	N=C(OCc1nc(N)nc(Nc2ccc(N3CCOCC3)cc2)n1)N1CCC[C@@H]1C(F)(F)F [Compound F55, (4-amino-6-((4-morpholinophenyl)amino)-1,3,5-triazin-2-yl) methyl(R)-2-(trifluoromethyl) pyrrolidine-1-carbimidate]	
